Reference: patent publication US12480163B2, “Compositions and methods for identification assessment, prevention, and treatment of Ewing sarcoma using TP53 dependency biomarkers and modulators” (Dana-Farber Cancer Institute, Inc., priority 2018, dated 2025)
Entries after “also recorded” stand apart in the source; their conditions may differ.

Legend:
TP53 knockout cells = test: CellTiter-Glo cell viability assay, TP53 knockout cells; type: cell-based; details: TP53 knockout cells vs control cells, treated for 3 d
Description: Lentivirus was produced by transfecting HEK-293T cells with the pLentiV2 vector (Addgene plasmid 52961) and the packaging plasmids pCMV8.9 and pCMV-VSVG according to the FuGENER 6 (Roche) protocol. For lentiviral transduction, Ewing sarcoma cells were incubated with 2 ml of virus and 8 μg/ml of polybrene (Sigma-Aldrich). Cells were selected in puromycin (Sigma-Aldrich) 48 h after infection for single knockout experiments. For dual knockout experiments, PPM1D, USP7, and MDM4 sgRNA sequences were cloned into a LentiV2 vector with a blasticidin selection marker (Addgene plasmid 83480).
d. sgRNA Sequences sgRNAs were designed using the Broad Institute's sgRNA designer tool. The following sequences were used as control or to target the respective genes: control sgRNA, 5′-[…]-3′ (SEQ ID NO: 125); sgMDM2 2: 5′-[…]-3′ (SEQ ID NO: 126); sgMDM2 5: 5′-[…]-3′ (SEQ ID NO: 127); sgMDM4 4: 5′-[…]-3′ (SEQ ID NO: 128); sgMDM4 6: 5′-[…]-3′ (SEQ ID NO: 129); sgUSP7 1: 5′-[…]-3′ (SEQ ID NO: 130); sgUSP7 2: 5′-ACCATACCCAAATTATTC CG-3′ (SEQ ID NO: 131); sgPPMID 1: 5′-[…]-3′ (SEQ ID NO: 132); sgPPMID 2: 5′-[…]-3′ (SEQ ID NO: 133); sgTP53 1: 5′-[…]-3′ (SEQ ID NO: 134); sgTP53 2: 5′-[…]-3′ (SEQ ID NO: 135); sgTP53 4: 5′-[…]-3′ (SEQ ID NO: 136); and sgTP53 5: 5′-[…]-3′ (SEQ ID NO: 137). e. Protein Extraction and Immunoblotting
(§1) Cell viability was assessed using the CellTiter-Glo® Luminescent Cell Viability Assay (Promega). Viability assays were performed after Ewing sarcoma cell lines were infected with sgRNAs targeting TP53, MDM2, MDM4, PPM1D, or USP7 or treated with ATSP-7041, ATSP-7342, GSK2830371, P5091, XL-188, or vehicle control.

[1] = test system: TP53 wild-type Ewing sarcoma cell lines; test: CellTiter-Glo cell viability assay, TP53 wild-type Ewing sarcoma cell lines; type: cell-based; details: treated for 3 d
Description: as §1

[2] = test system: MDM2, p53, and p21 protein levels; test: Western immunoblotting of MDM2, p53, p21 in TP53 wild-type Ewing sarcoma cell lines; type: cell-based; details: for MDM2 protein levels, combination of ATSP-7041 and P5091 compared with ATSP-7041 alone: TC32 and TC138 cells, 2 d
Description: (§2) Whole-cell lysates were extracted in cell lysis buffer (Cell Signaling) supplemented with EDTA-free protease inhibitors and PhosSTOP™ phosphatase inhibitors (Roche). Western immunoblotting was performed using standard techniques. Primary antibodies used included anti-MDM2 (ab178938; Abcam), anti-MDM2 (86934; Cell Signaling), anti-MDM4 (A300-287A; Bethyl Laboratories), anti-p53 (2527S; Cell Signaling), anti-p21 (2946S; Cell Signaling), anti-Vinculin (18058; Abcam), anti-Wip1 (A300-664A; Bethyl Laboratories), anti-pSer15-p53 (9284; Cell Signaling), anti-USP7 (A300-033A; Bethyl Laboratories), and anti-Tubulin (cp06; CalBiochem).

MDM2 protein levels = test: Western immunoblotting of MDM2 in TP53 mutated cell lines A673 and EWS502; type: cell-based; details: TP53 mutated cell lines A673 and EWS502, 1 μM; 4 h
Description: as §2

p53-MDM4 complex = biological target: T1, p53-MDM4 complex (Homo sapiens, UniProt O15151); test: MDM4 immunoprecipitation from TC32 cell lysates, p53 and MDM4 Western blot; type: binding; details: TC32 lysates after RG7388 pre-treatment, 20 μM compound
T1 construct: endogenous in cells; host or cells: TC32 Ewing sarcoma cells (TP53 wild-type), lysed in NP-40 buffer
T1 sequence (O15151 1-490): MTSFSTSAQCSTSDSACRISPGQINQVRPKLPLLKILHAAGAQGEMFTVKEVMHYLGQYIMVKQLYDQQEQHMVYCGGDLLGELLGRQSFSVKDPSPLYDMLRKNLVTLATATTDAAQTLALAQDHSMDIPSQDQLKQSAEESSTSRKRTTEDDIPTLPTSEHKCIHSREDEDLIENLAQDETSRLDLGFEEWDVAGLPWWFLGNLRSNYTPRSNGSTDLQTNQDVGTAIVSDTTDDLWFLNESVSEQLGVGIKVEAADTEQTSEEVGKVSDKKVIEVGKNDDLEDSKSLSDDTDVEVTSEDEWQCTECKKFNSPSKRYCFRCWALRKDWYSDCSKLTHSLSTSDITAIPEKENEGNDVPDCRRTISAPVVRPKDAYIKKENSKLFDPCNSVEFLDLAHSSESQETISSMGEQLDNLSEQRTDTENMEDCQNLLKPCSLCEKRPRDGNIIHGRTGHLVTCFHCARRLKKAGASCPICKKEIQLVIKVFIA
Description: g. Immunoprecipitation Experiments
Five million TC32 cells were treated with either 10 μM RG7388 or vehicle control for 4 h. Cells were lysed in buffer A (150 mM NaCl, 50 mM Tris, and 0.5% NP-40, pH 7.4) and combined with anti-MDM4 antibody (A300-287A; Bethyl Laboratories) in the presence of 20 μM RG7388, ATSP-7041, or vehicle control in a total volume of 1 ml, rotating at 4° C. for 16 h. Subsequently, 50 μl washed Protein AG beads (sc-2003; Santa Cruz) were added and the mixture was incubated for 1 h rotating at 4° C. Beads were washed three times in buffer A, and protein complexes were eluted by boiling in NuPage® LDS Sample Buffer (NP0007; Invitrogen) supplemented with DTT. Samples were analyzed by Western blot with antibodies against p53 DO-1 (sc-126; Santa Cruz) and MDM4 (A300-287A; Bethyl Laboratories).

[3] = test system: TP53 wild-type Ewing sarcoma cell lines; test: Annexin V staining, flow cytometry (cell death); type: cell-based; details: TC32 and CHLA258; 2 d ATSP-7041 (2 μM, 4 μM) or P5091 (6.5 μM, 8 μM), 3 d GSK2830371 (15 μM)
Description: Cell death was measured using flow cytometric analysis of Annexin V staining according to the manufacturer's instructions (eBioscience). Data analysis was completed using Flowjo 7.6 software (Treestar).

Wip1 = biological target: T2, Wip1 (Homo sapiens, UniProt O15297); test: Western immunoblotting of Wip1 and pSer15-p53; type: cell-based; details: Western blot
T2 construct: Whole-cell lysates were extracted in cell lysis buffer (Cell Signaling); endogenous in cells; host or cells: TP53 wild-type Ewing sarcoma cell lines
T2 sequence (O15297 1-605): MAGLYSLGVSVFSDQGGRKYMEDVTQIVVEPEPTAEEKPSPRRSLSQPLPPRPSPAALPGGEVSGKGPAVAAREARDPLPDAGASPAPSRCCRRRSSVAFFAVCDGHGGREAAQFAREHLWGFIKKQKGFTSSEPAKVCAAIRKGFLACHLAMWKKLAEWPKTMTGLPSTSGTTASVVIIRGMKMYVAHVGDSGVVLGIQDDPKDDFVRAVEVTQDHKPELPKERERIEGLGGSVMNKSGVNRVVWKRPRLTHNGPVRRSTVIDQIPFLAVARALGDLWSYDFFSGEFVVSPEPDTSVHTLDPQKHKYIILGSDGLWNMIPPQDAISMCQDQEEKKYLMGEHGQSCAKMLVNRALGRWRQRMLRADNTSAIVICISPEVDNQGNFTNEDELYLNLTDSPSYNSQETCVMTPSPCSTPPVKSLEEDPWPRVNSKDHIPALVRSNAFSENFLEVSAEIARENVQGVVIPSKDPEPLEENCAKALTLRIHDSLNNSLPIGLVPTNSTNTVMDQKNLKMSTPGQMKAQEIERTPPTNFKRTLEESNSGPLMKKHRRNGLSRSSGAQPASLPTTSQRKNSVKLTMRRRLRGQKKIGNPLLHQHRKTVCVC
Description: as §2

[4] = TP53 wild-type Ewing sarcoma cell lines, micromolar concentrations

Compound	effect of TP53 knockout on the cytotoxic effect of the compound (viability) (TP53 knockout cells)	cell viability, normalized to vehicle control ([1]; TC32 cells)	cell viability, normalized to vehicle control [1, 4]	MDM2 protein levels ([2]; TP53 wild-type cell lines TC32 and TC138, 1 μM, 4 h)	MDM2 protein levels (MDM2 protein levels)	disruption of p53-MDM4 complex (MDM4 immunoprecipitation) (p53-MDM4 complex)	MDM2 protein levels, combination of ATSP-7041 and P5091 compared with ATSP-7041 alone [2]	MDM2 protein levels, combination of ATSP-7041 and P5091 compared with ATSP-7041 alone ([2]; listed as P0951)	p53 and p21 protein levels ([2]; TP53 wild-type cells TC32 and TC138, Western blot)	cell death measured by Annexin V staining [3]	phosphorylation of Serine 15 of p53 (pSer15-p53) (Wip1; single agent)	Wip1 protein levels (Wip1; time-dependent)
C[C@H](CC(=O)N1CCC(O)(Cn2cnc3cc(NC(=O)CCN4CCN(C)CC4)ccc3c2=O)CC1)c1ccccc1 [XL-188, (R)—N-(3-((4-hydroxy-1-(3-phenylbutanoyl)piperidin-4-yl)methyl)-4-oxo-3,4-dihydroquinazolin-7-yl)-3-(4-methylpiperazin-1-yl) propanamide]	completely reversed the cytotoxic effect	especially robust effect	reduced viability predominantly in TP53 wild-type Ewing sarcoma cell lines									
COc1cc(C(=O)O)ccc1NC(=O)[C@@H]1N[C@@H](CC(C)(C)C)[C@](C#N)(c2ccc(Cl)cc2F)[C@H]1c1cccc(Cl)c1F [RG7388]				increase in MDM2 protein levels	no response; also recorded: no increase in MDM2 protein	does not interrupt binding; also recorded: unable to dissociate						
CC(=O)c1cc([N+](=O)[O-])c(Sc2cccc(Cl)c2Cl)s1 [P5091]	did not rescue		reduce viability; also recorded: relatively more cytotoxic				decreased MDM2 protein levels; also recorded: decreased the level of MDM2 protein	suppresses the feedback up-regulation of MDM2	increase in p53 and p21 protein levels; also recorded: increased p53 and p21 protein levels in a time-dependent fashion	triggers cell death; also recorded: P5091-induced cell death		
Cc1ncc(Cl)cc1NCc1ccc(C(=O)N[C@@H](CC2CCCC2)C(=O)NC2CC2)s1 [GSK2830371, 5-[[(5-Chloro-2-methyl-3-pyridinyl)amino]methyl]-N-[(1S)-1-(cyclopentylmethyl)-2-(cycloprpylamino)-2-oxoethyl]-2-thiophenecarboxamide]	less effective		reduce viability; also recorded: notable increase in susceptibility							triggers cell death; also recorded: GSK2830371-induced cell death	increased pSer15-p53; also recorded: triggered a surge in phosphorylation of Serine 15 of p53	decreased protein levels of Wip1; also recorded: reduced the protein levels of Wip1
